The test system of data set [1] is Salmonella pullorum. The data set can be described thus: In-vitro antibacterial activity, MIC by broth dilution. It counts as cell-based. As to conditions: Salmonella enterica, PULLORUM, 24 h. As for the experimental part:
(§1) All test compounds were dissolved in dimethyl sulfoxide (DMSO, Sigma, USA) and then diluted in Dulbecco’s modified Eagle’s medium (DMEM, Gibco, USA) at desired concentrations for cell proliferation analyses or diluted in nutrient broth medium for antimicrobial susceptibility testing respectively. The final concentration of DMSO in the DMEM culture medium was under 0.1% (v:v).
(§2) The preliminary antibacterial activities were obtained for selected compounds against various bacteria, namely: Staphyloccocus aureus ATCC25923 (Gram-positive bacteria), Clostridium perfringen CVCC52,8604 (anaerobes bacteria), Salmonella pullorum (Gram-negative bacteria), Escherichia coli ATCC25922 (Gram negative bacteria) and Aeromonas hydrophila (Gram-negative bacteria) were used in the study. Each strain was cultured in appropriate broth medium. Clostridium perfringen was incubated in an anaerobic chamber. The minimum inhibitory concentration (MIC) for each test compound was estimated using the broth dilution method. The MIC’s was determined for each strain/compound pairs that presented antimicrobial activity. The method was modified from Mohapatra›s methods ([14], [15]). Cell suspensions were prepared in 2 mL of liquid medium with concentrations of various tests of compounds in 15 mL culture tubes by inoculation with 100 μL of 10^6 cfu/mL from each stock. The cultures were incubated at 28 °C or 37 °C for 24 h. Tubes showing no visible turbidity represented the MIC, and subsequently, were inoculated on the right side of the 9cm sterile nutrient agar plates without various test compounds and incubated for 24 h (Clostridium perfringen was incubated in an anaerobic chamber.). The least concentration, at which no growth was observed, represented the minimum bactericidal concentration (MBC) ([16]).
Background: Broth dilution looks for growth in wells or tubes with falling amounts of substance.

The subject of data set [2] is Escherichia coli ATCC25922. The data set is described as above. It counts as cell-based. Particulars: Escherichia coli, read-out: MIC values Escherichia coli ATCC25922. The procedure:
as §1, §2

The test system of data set [3] is Staphyloccocus aureus ATCC25923. Described as above. Particulars: 24 h, read-out: MIC values Staphyloccocus aureus ATCC25923. It counts as cell-based. As for the experimental part:
as §1, §2

The test system of data set [4] is Aeromonas hydrophila. The data set is described as above. It counts as cell-based. Particulars: Aeromonas hydrophila, 24 h, read-out: MIC values Aeromonas hydrophila. As for the experimental part: as §1, §2
Data set [5] has as its system Clostridium perfringen CVCC52,8604. As to the kind of experiment: In-vitro antibacterial activity, MIC by broth dilution (anaerobic chamber). As to conditions: Clostridium, 24 h. The data set is classed as cell-based. The procedure:
as §1, §2

Data set [6] relates to HepG2 cells. The data set can be described thus: In-vitro cytotoxicity, MTT cell proliferation assay. As to conditions: 24 h incubation, concentration reducing viable cells by 50%. It counts as cell-based, human. The procedure: as §1
(§3) HepG2 and normal human Chang liver cells were obtained from the Institute of Biochemistry and Cell Biology, Shanghai Institutes for Biological Sciences, Chinese Academy of Sciences (Shanghai, China). HepG2 and normal human Chang liver cells were cultured at 37˚Cwith 5% CO2 in DMEM supplemented with 2% L-glutamine, 10% fetal bovine serum (Gibco, USA), 100 U/mL penicillin and 100 […] (Gibco, USA).
(§4) The methodology for evaluating the cytotoxicity inhibitory activity of various test compounds towards cell proliferation has been described previously ([11], [17]). Cell proliferation inhibitory analyses were carried out using the 3-(4,5-dimethylthiazole-2-yl)-2,5-diphenyl tetrazolium bromide (MTT, Sigma, USA) assay. Briefly, cancers HepG2 and normal human Chang liver cells were harvested and resuspended in fresh growth medium. A 100 μL cell suspension (5 × 10^4 cells/mL) was aliquoted into each well of a 96-well culture plate. After 12 h incubation, the medium was replaced with fresh medium containing various concentrations of test compounds. The cells were then incubated for another 24 h. At the end of exposure, 10 μL of MTT solution (5 mg/mL) was added, and the cells were incubated for 4 h at 37 °C. The cells were treated with 100 μL DMSO, and absorbance was recorded at 570 nm using a microplate ELISA reader (ELX800, Bio-Tek, USA). All experiments were performed at least thrice, and data were presented as the mean of sixplicate wells ± standard deviation (SD). Cell inhibition was calculated as follows:
(§5) (OD of control group − OD of experimental group) / (OD of control group − OD of blank group) ×100%. The IC50 value for a compound was calculated using SPSS.

Data set [7] relates to Gram-positive and Gram-negative bacteria. As to the kind of experiment: Antibacterial activity class based on the MIC results. The data set is classed as cell-based. As for the experimental part:
as §2
In this study, activity of quinoxaline-1, 4-dioxides and their deoxygenations was tested against selected Gram-negative bacteria (Escherichia coli, Salmonella pullorum and Aeromonas hydrophila), Gram-positive bacteria (Staphyloccocus aureus and Clostridium perfringen). The in-vitro antibacterial activity was based on the MIC results: Strong antibacterial activity, if MIC is less than 50 μg/mL; Moderate, if MIC is in between 50 and 250 μg/mL; No activity, if MIC is more than 500 μg/mL.

Data set [8] has as its system normal human Chang liver cells. As to the kind of experiment: In-vitro cytotoxicity, MTT cell proliferation assay. It counts as cell-based. As to conditions: 24 h incubation, concentration reducing viable cells by 50%. As for the experimental part: as §1, §3, §4, §5
A general note: Tetrazolium dyes change colour on reduction, which living cells bring about.

Where [9] appears, read: Homo sapiens, Chang liver, 24 h.
Where [10] appears, read: ATCC25922, broth dilution, 24 h.

≈ marks a conversion by molar mass, not a printed value. Where two headings read alike, the source gives them in different places. Some results are limits rather than exact numbers.

From publication PMC5603865, “Synthesis, In-Vitro Activity and Metabolic Properties of Quinocetone and Structurally Similar Compounds” (Iranian Journal of Pharmaceutical Research : IJPR, 2017) come the findings set out here.

A word on the MIC: it is the least concentration at which growth counts as inhibited. Usually IC50 stands for the concentration that inhibits the measured activity by half. A higher IC50 goes with weaker potency. Usually melting point stands for the temperature of the solid-liquid transition.

For the compound `CCOC(=O)c1c(C)[n+]([O-])c2ccccc2[n+]1[O-]` [Compound 8, 3-methyl-2-quinoxaline-2-carboxylate-1,4-dioxide], the MIC in [1] is 19.8 µg/mL (≈ 79.9 µM); in data set [2] (ATCC25922, 24 h), 4.96 µg/mL (≈ 20 µM); in data set [3] (broth dilution) it was 39.7 µg/mL (≈ 160 µM); in [4] (broth dilution), 39.7 µg/mL (≈ 160 µM); in data set [5], 4.96 µg/mL (≈ 20 µM). For the same compound, the concentration for half-maximal inhibition (IC50) in data set [6] (Homo sapiens, HepG2, 24 h) stood at 217 ± 3.48 µM; in [8] (setting [9]) it was 217 ± 3.52 µM. Also, the “antibacterial activity against Gram-positive and Gram-negative bacteria” value (shortened to “antibacterial activity”) in data set [7] is listed as “strong or moderate activity”.

`Cc1c[n+]([O-])c2ccccc2[n+]1[O-]` [Compound 11, 3-methyl-quinoxaline-1,4-dioxide] came in with a melting point of 173.5 to 176.8 °C. The same compound showed an MIC in [1] of 451 µg/mL (≈ 2560 µM). Moreover, the MIC in [2] (setting [10]) was 56.3 µg/mL (≈ 320 µM). Besides, in data set [3] (broth dilution), the MIC is 451 µg/mL (≈ 2560 µM). The MIC in data set [4] worked out at 225 µg/mL (≈ 1280 µM). Further, inhibition of growth in [5] (MIC) required 225 µg/mL (≈ 1280 µM). Further, in data set [6] (Homo sapiens, HepG2, 24 h), half-maximal inhibition (IC50) was put at 465 ± 28.8 µM. Also, in data set [7], the “antibacterial activity” value is “little or no activity”. Also, the IC50 in data set [8] (setting [9]) is 452 ± 6.86 µM.

Consider `Cc1c(C(=O)/C=C/c2ccccc2O)[n+]([O-])c2ccccc2[n+]1[O-]` [Compound 3c], for which the MIC in data set [1] turned out to be 103 µg/mL (≈ 320 µM); in data set [2] (setting [10]), 103 µg/mL (≈ 320 µM); in [3], 25.8 µg/mL (≈ 79.9 µM); in data set [4] (broth dilution), 103 µg/mL (≈ 320 µM); in [5], 25.8 µg/mL (≈ 79.9 µM). Moreover, the IC50 was 102 ± 4.13 µM in data set [6]; 102 µM in data set [6] (Homo sapiens, HepG2, 24 h); 192 ± 10.3 µM in [8] (setting [9]). Moreover, the “antibacterial activity” value in data set [7] is recorded as “strong or moderate activity”.

As for `Cc1c(C(=O)/C=C/c2cccc(O)c2)[n+]([O-])c2ccccc2[n+]1[O-]` [Compound 3b], the MIC turned out to be 25.8 µg/mL (≈ 79.9 µM) in data set [1]; 103 µg/mL (≈ 320 µM) in data set [2] (setting [10]); 12.9 µg/mL (≈ 40 µM) in [3] (broth dilution); 206 µg/mL (≈ 639 µM) in data set [4] (broth dilution); 51.5 µg/mL (≈ 160 µM) in data set [5]. The half-maximal inhibitory concentration (IC50) came to 30.5 ± 1.3 µM in [6]; 30 µM in [6] (Homo sapiens, HepG2, 24 h); 68 ± 2.9 µM in data set [8]; 68 µM in [8] (setting [9]). Besides, in [7], the “antibacterial activity” value is reported as “strong or moderate activity”.

With `CC(=O)c1nc2ccccc2nc1C` [Compound 4, 2-acetyl-3-methylquinoxaline], the minimal inhibitory concentration (MIC) is 476 µg/mL (≈ 2560 µM) in data set [1]; greater than 500 µg/mL in data set [2] (setting [10]); greater than 500 µg/mL in data set [3] (broth dilution); 119 µg/mL (≈ 639 µM) in data set [4] (broth dilution); greater than 500 µg/mL in data set [5]. For the same compound, the IC50 in data set [6] (Homo sapiens, HepG2, 24 h) was determined as 572 ± 36.2 µM; in [8] (setting [9]), 672 ± 23.2 µM. The “antibacterial activity” value in [7] is “little or no activity”.

`Cc1c(C(=O)/C=C/c2ccco2)[n+]([O-])c2ccccc2[n+]1[O-]` [Compound 6, 3-methyl-2-(3-fura-2-propenoyl)-quinoxaline-1,4-dioxide]: the MIC stood at 189 µg/mL (≈ 639 µM) in data set [1]; 94.7 µg/mL (≈ 320 µM) in data set [2] (ATCC25922, 24 h); 94.7 µg/mL (≈ 320 µM) in data set [3]; 94.7 µg/mL (≈ 320 µM) in data set [4]; 94.7 µg/mL (≈ 320 µM) in [5]. The IC50 in data set [6] (Homo sapiens, HepG2, 24 h) is 240 ± 34.8 µM; in [8] (setting [9]) it was 299 ± 6.72 µM. Moreover, the “antibacterial activity” value in data set [7] is on record as “strong or moderate activity”.

Turning to `CCOC(=O)c1nc2ccccc2nc1C` [Compound 9, 3-methyl-2-quinoxaline-2-carboxylate], the MIC in [1] is greater than 500 µg/mL; in [2] (setting [10]) it was greater than 500 µg/mL; in [3] (broth dilution), greater than 500 µg/mL; in [4] (broth dilution), 138 µg/mL (≈ 639 µM); in [5], greater than 500 µg/mL. Further, the IC50 in [6] (Homo sapiens, HepG2, 24 h) came out at 547 ± 7.71 µM; in data set [8] (setting [9]) it was 610 ± 18.4 µM. Besides, the “antibacterial activity” value in data set [7] is “little or no activity”.
